Reference: patent EP1285920A1, “C10 Ester sustituted taxanes as antitumor agents” (Florida State University Research Foundation, Inc., priority 2001, dated 2003)
Like-named read-outs stand apart in the source and are kept apart here.

Experiments:
SKMES lung carcinoma [1] = experiment: In vivo evaluation of compound 0503 against SKMES human lung carcinoma xenograft, i.v. dose range (Example 20); conditions: for % Total Response: complete or partial responses among evaluable animals; for MDS (n): mean days of survival until neoplasm reached 2.0 g, 6 mice, terminated Day 60; for survival extension / MDS: other mice; for MDS: tumor 2.0 g
Description: The antitumor compound was prepared in a vehicle of 10% ethanol and 90% Liposyn III in the manner as described for Emulsion 3 of Example 9.
Treatment groups consisted of: vehicle only (Group 1), and antitumor compound 0503 (dosages of 104 mg/kg, 72.8 mg/kg, 41.6 mg/kg, and 10.4 mg/kg; Groups 2-5, respectively).

[2] = tested on: NCI-H1299 (H1299) carcinoma; experiment: In vivo evaluation against NCI-H1299 human lung carcinoma xenograft (i.v., Example 11); conditions: for Mean Score: tumor score 1 to 10 per mouse, group mean
Description: Antitumor compounds were formulated for an i.v. dosing regime prepared in the following vehicle: 10% ethanol, 10% Cremophor and 80% isotonic saline.
Vehicle control animals were dosed twice intravenously with half the total volume being given separated by one hour. The study was terminated on Day 60.
(§1) A complete response is obtained if the tumor is not palpable at the end of the study.
A tumor scoring system was designed to provide a more quantitative ranking of efficacy (therapeutic potential) among the antitumor agents evaluated against the different human solid tumor xenografts. Each mouse in a study was given a score of from 1 to 10 at the end of the study. The scores can be summarized as follows:
The individual score for each mouse was averaged into a mean score for each treatment group. […]
The treatment protocol for the H1299 test was identical to the SK-MES test protocol. […]

SKMES lung carcinoma [3] = experiment: In vivo evaluation of oral administration against SKMES human lung carcinoma xenograft (Example 21); conditions: for % Total Response: complete or partial responses among evaluable animals; for % Total Response / MDS (n) / Toxic Deaths / Complete Response / Partial Response / Stable Disease / Survivors: mg/kg: Taxol 40, 0687 228, 0503 73; for MDS (n): mean days of survival until neoplasm reached 2.0 g, terminated Day 60; for MDS (n) / Toxic Deaths / Complete Response / Partial Response / Stable Disease / Survivors: 6 mice/group; for Toxic Deaths / Complete Response / Partial Response / Stable Disease / Survivors: number of mice; for Complete Response / Partial Response / Stable Disease / Survivors: Day 60
Description: Female Nu/Nu mice (6-8 weeks of age; implanted with 1 mm^3 SKMES lung carcinoma fragments in the flank) were sorted into treatment groups of six mice each. […] Treatments were administered as a single oral bolus on Day 1, and the study was terminated on Day 60.
as §1
The total response rate is defined as the percentage of evaluable animals (excluding deaths due to procedure or toxicity) in a group that experience complete or partial responses at the termination of the study.

MX-1 carcinoma = conditions: for Mean Score: 6 mice/group; for Complete Response: tumor not palpable at end of study; for Partial Response: tumor smaller than on Day 1
Outline: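 Mice dosed with a single i.v. bolus (qd x 1) at each compound's MTD, formulated in 5% ethanol, 5% Cremophor, 90% isotonic saline. Study ended Day 60; complete response = tumor not palpable at study end.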

[4] = tested on: Panc-1 pancreatic carcinoma; conditions: for Mean Score: tumor scoring system
Description: The dosing volume was 0.3 ml per 20 g mouse.
Female NCr-nude mice were implanted subcutaneously with 1 mm^3 Panc-1 pancreatic carcinoma fragments in the flank and sorted into treatment groups of six mice each. […] Dosing was initiated on Day 1. The antitumor compounds were given i.v. at an estimated maximum tolerated dose (MTD) appropriate for each agent on a qd x 1 schedule (single administration of compound). […] The vehicle was administered i.v. to control mice in Group 1 on the qd x 1 schedule.
The mean days of survival is the number of days after which a neoplasm reached a size of 1.5 g and the animal was euthanized. A complete response is obtained if the tumor shrinks to a size smaller than its size on Day 1 of the study.

[5] = 10.4 mg/kg, single IV bolus Day 1
[6] = 10.4 mg/kg, single IV bolus Day 1, number of mice of 6, Day 60
[7] = 41.6 mg/kg, single IV bolus Day 1
[8] = 41.6 mg/kg, single IV bolus Day 1, number of mice of 6, Day 60
[9] = 72.8 mg/kg, single IV bolus Day 1
[10] = 72.8 mg/kg, single IV bolus Day 1, number of mice of 6, Day 60
[11] = 104 mg/kg, single IV bolus Day 1
[12] = 104 mg/kg, single IV bolus Day 1, number of mice of 6, Day 60
[13] = SKMES, 72.8 mg/kg single IV bolus (Group 3)
[14] = SKMES, 72.8 mg/kg single IV bolus (Group 3), six mice
[15] = SKMES, 104 mg/kg single IV bolus (Group 2)
[16] = i.v. split dose qd x 1, six mice per group
[17] = i.v. qd x 1 at MTD, Day 60, doses as in E17
[18] = number of 6 mice, tumor did not reach 2.0 g by end of study, i.v. qd x 1 at MTD, Day 60, doses as in E17
[19] = number of 6 mice, i.v. qd x 1 at MTD, Day 60, doses as in E17
[20] = number of 6 mice, i.v. qd x 1 at MTD, Day 60, mg/kg: Taxol 36 (split dose), 0503 72.6, 0536 49, 0663 159, 0670 123, 0687 159, 0706 108, 0908 159, 0947 76.9, 0951 72.6, 0983 67.4, 0999 49, 1003 49, 1011 108
[21] = number of mice, Taxol 15 mg/kg i.p. qd x 5, 6 mice, Day 63
[22] = number of mice, i.v. qd x 1, mg/kg: Taxol 24, 0854 46.6, 1011 107.6, 6 mice/group, Day 63
[23] = MX-1, i.v. qd x 1, six mice per group

CCC(=O)O[C@H]1C(=O)[C@@]2(C)[C@H]([C@H](OC(=O)c3ccccc3)[C@]3(O)C[C@H](OC(=O)[C@H](O)[C@@H](NC(=O)OC(C)(C)C)c4ccccn4)C(C)=C1C3(C)C)[C@]1(OC(C)=O)CO[C@@H]1C[C@@H]2O [Compound 0503]
% Total Response (SKMES lung carcinoma [1]; [5]): 0% | MDS (n) (SKMES lung carcinoma [1]; [5]): 26.0 ± 2.5 (6) days | Toxic Deaths (SKMES lung carcinoma [1]; 10.4 mg/kg, single IV bolus Day 1, number of mice of 6): 0 | Partial Response (SKMES lung carcinoma [1]; [6]): 0 | Stable Disease (SKMES lung carcinoma [1]; [6]): 0 | Survivors (SKMES lung carcinoma [1]; [6]): 0 | % Total Response (SKMES lung carcinoma [1]; [7]): 0% | MDS (n) (SKMES lung carcinoma [1]; [7]): 33.8 ± 3.4 (5) days | Toxic Deaths (SKMES lung carcinoma [1]; 41.6 mg/kg, single IV bolus Day 1, number of mice of 6): 0 | Partial Response (SKMES lung carcinoma [1]; [8]): 0 | Stable Disease (SKMES lung carcinoma [1]; [8]): 1 | Survivors (SKMES lung carcinoma [1]; [8]): 1 | % Total Response (SKMES lung carcinoma [1]; [9]): 33.3% | MDS (n) (SKMES lung carcinoma [1]; [9]): 37.4 ± 5.2 (4) days | Toxic Deaths (SKMES lung carcinoma [1]; 72.8 mg/kg, single IV bolus Day 1, number of mice of 6): 0 | Partial Response (SKMES lung carcinoma [1]; [10]): 1 | Stable Disease (SKMES lung carcinoma [1]; [10]): 0 | Survivors (SKMES lung carcinoma [1]; [10]): 2 | % Total Response (SKMES lung carcinoma [1]; [11]): 50.0% | MDS (n) (SKMES lung carcinoma [1]; [11]): 46.6 ± 3.2 (3) days | Toxic Deaths (SKMES lung carcinoma [1]; 104 mg/kg, single IV bolus Day 1, number of mice of 6): 0 | Partial Response (SKMES lung carcinoma [1]; [12]): 0 | Stable Disease (SKMES lung carcinoma [1]; [12]): 0 | Survivors (SKMES lung carcinoma [1]; [12]): 3 | survival extension (SKMES lung carcinoma [1]; [13]): 114% | MDS (SKMES lung carcinoma [1]; [13]): 37.4 days | Complete Response (SKMES lung carcinoma [1]; [14]): One | Partial Response (SKMES lung carcinoma [1]; [14]): one | complete tumor regressions (SKMES lung carcinoma [1]; SKMES, 104 mg/kg single IV bolus (Group 2), 10% ethanol, 90% Liposyn III, six mice): Three | survival extension (SKMES lung carcinoma [1]; [15]): 167% | MDS (SKMES lung carcinoma [1]; [15]): 46.6 days | Partial Response ([2]; i.v. split dose qd x 1): 0 | Stable Disease ([2]; i.v. split dose qd x 1): 3 | antitumor activity ([2]; i.v. split dose qd x 1): significant efficacy | Survivors [2, 16]: 5 | Mean Score [2]: 5.5 ± 1.6 | complete responses (SKMES lung carcinoma [3]; SKMES, 0503 73 mg/kg single oral bolus, six mice): three | % Total Response (SKMES lung carcinoma [3]; single oral bolus Day 1): 50.0% | MDS (n) (SKMES lung carcinoma [3]; single oral bolus Day 1): 29.8 ± 3.6 (3) days | Toxic Deaths (SKMES lung carcinoma [3]; single oral bolus Day 1): 0 | Complete Response (SKMES lung carcinoma [3]; single oral bolus Day 1): 3 | Partial Response (SKMES lung carcinoma [3]; single oral bolus Day 1): 0 | Stable Disease (SKMES lung carcinoma [3]; single oral bolus Day 1): 0 | Survivors (SKMES lung carcinoma [3]; single oral bolus Day 1): 3 | treated animals with durable complete responses and partial responses (MX-1 carcinoma; MX-1, single i.v. MTD): 100% | Mean Score (MX-1 carcinoma; [17]): 9.7 ± 0.2 | Stable Disease (MX-1 carcinoma; [18]): 0 | Complete Response (MX-1 carcinoma; [19]): 4 | Partial Response (MX-1 carcinoma; [19]): 2 | Survivors (MX-1 carcinoma; [19]): 6 | Toxic Deaths (MX-1 carcinoma; [20]): 0

CC(=O)O[C@H]1C(=O)[C@@]2(C)[C@H]([C@H](OC(=O)c3ccccc3)[C@]3(O)C[C@H](OC(=O)[C@H](O)[C@@H](NC(=O)c4ccccc4)c4ccccc4)C(C)=C1C3(C)C)[C@]1(OC(C)=O)CO[C@@H]1C[C@@H]2O [Taxol, paclitaxel, reference compound]
survival extension compared to vehicle-treated animals ([2]; Taxol 36 mg/kg i.v., five animals): 10% | MDS (n) ([2]; i.v. MTD in two half doses one hour apart, qd x 1, Taxol 36 mg/kg, 0503 72.1 mg/kg, ended Day 60): 27.0 ± 4.6 (5) days | Complete Response ([2]; i.v. split dose qd x 1): 0 | Stable Disease ([2]; i.v. split dose qd x 1): 0 | antitumor activity ([2]; i.v. split dose qd x 1): not active | Survivors [2, 16]: 1 | Toxic Deaths [2, 16]: 0 | Mean Score [2]: 2.7 ± 1.3 | antitumor activity (SKMES lung carcinoma [3]; SKMES, single oral bolus Day 1, 0687 228 mg/kg, 0503 73 mg/kg, Taxol 40 mg/kg): no statistically significant response | % Total Response (SKMES lung carcinoma [3]; single oral bolus Day 1): 0% | MDS (n) (SKMES lung carcinoma [3]; single oral bolus Day 1): 13.2 ± 1.4 (6) days | Toxic Deaths (SKMES lung carcinoma [3]; single oral bolus Day 1): 0 | Complete Response (SKMES lung carcinoma [3]; single oral bolus Day 1): 0 | Partial Response (SKMES lung carcinoma [3]; single oral bolus Day 1): 0 | Stable Disease (SKMES lung carcinoma [3]; single oral bolus Day 1): 0 | Survivors (SKMES lung carcinoma [3]; single oral bolus Day 1): 0 | MDS ([4]; Panc-1 (Example 18), Taxol 24 mg/kg i.v. qd x 1, four mice, tumor 1.5 g, ended Day 63): 34.7 days | Toxic Deaths ([4]; Panc-1 (Example 18), Taxol i.p. 15 mg/kg qd x 5 (Group 3), six animals): four | Stable Disease ([4]; Panc-1 (Example 18), i.v. qd x 1, Taxol 24 mg/kg split, six mice per group): one | toxic deaths / toxic lethalities ([4]; Panc-1 (Example 18), i.v. qd x 1, six mice per group): One | MDS (n) ([4]; mean days of survival until neoplasm reached 1.5 g, i.v. qd x 1, mg/kg: Taxol 24, 0854 46.6, 1011 107.6, 6 mice/group, terminated Day 63): 34.7 ± 3.4 days | Toxic Deaths ([4]; number of mice, Taxol 15 mg/kg i.p. qd x 5, 6 mice): 4 | Complete Response [4, 21]: 0 | Partial Response [4, 21]: 1 | Stable Disease [4, 21]: 0 | Survivors [4, 21]: 1 | Toxic Deaths ([4]; number of mice, i.v. qd x 1, mg/kg: Taxol 24, 0854 46.6, 1011 107.6, 6 mice/group): 1 | Complete Response [4, 22]: 0 | Partial Response [4, 22]: 0 | Stable Disease [4, 22]: 1 | Survivors [4, 22]: 1 | Mean Score ([4]; Taxol 15 mg/kg i.p. qd x 5, 6 mice): 1.2 ± 1.2 | Mean Score ([4]; i.v. qd x 1, mg/kg: Taxol 24, 0854 46.6, 1011 107.6, 6 mice/group): 2.2 ± 0.8 | MDS (MX-1 carcinoma; MX-1, Taxol 36 mg/kg i.v. qd x 1, one animal, calculated, tumor 2.0 g): 27.8 days | antitumor activity / tumor response (MX-1 carcinoma; MX-1, i.v. qd x 1, Day 60): moderate anti-tumor activity | Stable Disease (MX-1 carcinoma; [23]): One | Toxic Deaths (MX-1 carcinoma; [23]): four | Mean Score (MX-1 carcinoma; [17]): 1.2 ± 0.8 | tolerability (MX-1 carcinoma; mouse, in vivo, iv): not well tolerated | Stable Disease (MX-1 carcinoma; [18]): 1 | Complete Response (MX-1 carcinoma; [19]): 0 | Partial Response (MX-1 carcinoma; [19]): 0 | Survivors (MX-1 carcinoma; [19]): 1 | Toxic Deaths (MX-1 carcinoma; [20]): 0
